Where two headings read alike, the source gives them in different places.
Test system: HIV-1 Strain IIIB
Experiment: Double combination dose response matrices in MT2-cells infected with HIV-1 Strain IIIB (MacSynergy II / Greco analysis)
Type: cell-based
Details: Greco model estimate; for EC50: MT2-cells, HIV-1 IIIB, medium with 10% fetal bovine serum plus α1 acid glycoprotein (1 mg/ml) and albumin (40 mg/ml)
Procedure: Triplicate in vitro dose response matrices were prepared using MT2-cells infected with HIV-1 Strain IIIB. In order to account for the effects of protein binding, tissue culture medium with 10% fetal bovine serum was supplemented with the human serum proteins α1, acid glycoprotein (1 mg/ml) and albumin (40 mg/ml). The 3-D drug interaction surface for 1592U89 and 141W94 was constructed using the program MacSynergy II. As analyzed relative to a Bliss Independence null reference model, this combination was synergistic with volumes of synergy exceeding 100 (99% confidence). Analysis of the data set with a fully parametric form of an equation for the quantitation of drug interaction developed by Greco et al. also indicated synergy. The parameters, with 95% confidence intervals are shown below: EC50 is the half maximal response concentration. “m” is the slope parameter. Alpha is the synergy parameter.

EC50 (Human immunodeficiency virus 1, read-out: EC50,141w) | SMILES | EC50 (read-out: EC50,1592u) | m1592u (slope parameter) (same matrix) | m141w (slope parameter) (same matrix)
 | Nc1nc(NC2CC2)c2ncn([C@H]3C=C[C@@H](CO)C3)c2n1 (relative stereo) [1592U89, (1S,4R)-cis-4-[2-amino-6-(cyclopropylamino)-9H-purin-9-yl]-2-cyclopentene-1-methanol] | 626 nM | 1.60 | 
394 nM | CC(C)CN(C[C@@H](O)[C@H](Cc1ccccc1)NC(=O)O[C@H]1CCOC1)S(=O)(=O)c1ccc(N)cc1 (relative stereo) [141W94, 3S-[3R*(1R*,2S*)]-[3-[[(4-aminophenyl)sulphonyl](2-methylpropyl)-amino]-2-hydroxy-1-phenylmethyl)propyl]carbamic acid, tetrahydro-3-furanyl ester] |  |  | 2.20

Reference: patent US6486136B1, “Combinations comprising VX478, zidovudine and/or 1592U89 for use in the treatment of HIV” (SmithKline Beecham Corporation, priority 1996, dated 2002)
